The test system of this assay is Dermanyssus gallinae. As to the kind of experiment: In vitro effect on Dermanyssus gallinae. The settings on record: single component; for activity in terms of preventing oviposition, component alone: at 0.32 and 10 ppm. As for the experimental part: For the sake of simplicity, the chicken mite Dermanyssus gallinae is used. This is a good model for determining the effect on ticks.
In vitro Effect on Dermanyssus gallinae
The test is carried out with serial dilutions [avermectin component in concentrations of (32), 10, 3.2, 1.0, 0.32 to 0.0001 ppm; the 1-[4-chloro-3-(3-chlor-5-trifluoromethyl-2-pyridyloxy)phenyl]-3-(2,6-difluorobenzoyl)urea in concentrations of 100, 32, 10, 3.2, 1.0, 0.32 and 0.1 ppm]. For the test, the lowest concentration of one active substance is combined with the lowest concentration of the other active substance, and the limits of activity thus worked out. Ten fully engorged female mites of the genus Dermanyssus gallinae adhered to a plastic adhesive film are brought into contact with 50 μl of an aqueous suspension or emulsion of the test combination in question. After drying, the film is stuck onto a glass disc. This creates a kind of air bubble around each mite, the lower surface of which is formed by the glass disc and the upper surface by a bulging of the adhesive film. This bubble contains sufficient air for the mite to avoid suffocating. After 5 days, the effect of the test substance is evaluated with the aid of a stereomicroscope by assessing the effect on mortality, oviposition, egg quality, hatching rate, pupation rate, and development of protonymphs according to the following 4 criteria:
1) if 9 to 10 mites are dead, this indicates a lethal effect (characterised by M);
3) if 2 or more mites survive and produce eggs, but no larvae hatch from these eggs and no protonymphs develop, this indicates a development-inhibiting effect (H);
4)if 2 or more mites survive and lay the usual number of normal eggs, from which larvae hatch and develop into protonymphs, this indicates no activity (−).
In each test, two basic suspensions/emulsions (without active ingredient) and one suspension/emulsion with only one of each component are also tested in the corresponding concentrations.
The test is repeated three times with the following combinations and the results determined. The final result is given in Tables 1 to 3, whereby in the tables marked with a the combinations from the prior art are listed and in the tables marked with b the results of the combinations according to the invention are listed.

Data on five compounds can be found in patent US6469067B1, “Combinations” (Novartis AG, priority 1999, dated 2002).

`O=C(NC(=O)c1c(F)cccc1F)Nc1cc(Cl)c(Oc2ncc(C(F)(F)F)cc2Cl)c(Cl)c1` [A, chlorfluazuron]: the “activity against Dermanyssus gallinae, component alone” value (all tested concentrations) was “no activity at any concentration”.
Regarding `O=C(NC(=O)c1c(F)cccc1F)Nc1ccc(Cl)c(Oc2ncc(C(F)(F)F)cc2Cl)c1` [B, 1-[4-chloro-3-(3-chloro-5-trifluoromethyl-2-pyridyloxy)phenyl]-3-(2,6-difluorobenzoyl)urea], the “concentration up to which oviposition is prevented, component alone” value was 0.01 ppm.
Regarding `CO[C@H]1C[C@H](O[C@H]2[C@H](C)O[C@@H](O[C@@H]3/C(C)=C/C[C@@H]4C[C@@H](C[C@]5(C=C[C@H](C)[C@@H](C6CCCCC6)O5)O4)OC(=O)[C@@H]4C=C(C)[C@@H](O)[C@H]5OC/C(=C\C=C\[C@@H]3C)[C@]54O)C[C@@H]2OC)O[C@@H](C)[C@@H]1O` [Doramectin], the “activity in terms of preventing oviposition, component alone” value (“activity in terms” below) was “full activity”.
Take `CO/N=C1\C[C@]2(C[C@@H]3C[C@@H](C/C=C(\C)C[C@@H](C)/C=C/C=C4\CO[C@@H]5[C@H](O)C(C)=C[C@@H](C(=O)O3)[C@]45O)O2)O[C@H](/C(C)=C/C(C)C)[C@H]1C` [Moxidectin]: the “activity in terms” value was “full activity”.
On to Ivermectin, for which the “activity in terms” value was “full activity”.
